For eleven compounds, IC50 results are on record in PubChem BioAssay AID743494 (The Scripps Research Institute Molecular Screening Center, 2014).

For the test, the system named is Ga16 counterscreen cells, calcium fluorescence antagonism. As to the kind of experiment: nonselective Ga16 antagonists, potency, SAR follow-up, counter-screen for TAAR1 agonist project, cell-based, fluorescence, dose response, MedChem round 1 (AID 743494).

Active and inactive are the calls of the source. How the calls were made is not given here. Bounds are passed on as bounds.

`NC(=O)CCN1C[C@H](c2ccccc2)[C@@H]2[C@H]1C1CCN2CC1`: the IC50 was > 29.9 µM (inactive).

In the case of `CC1CN(CCC(=O)c2ccc3c(c2)OCCO3)CC1c1ccccc1` (stereo unspecified), the IC50 is > 29.9 µM (inactive).

On to `O=C(CCN1C[C@@H](C(=O)O)[C@H](c2ccccc2)C1)NCc1cccs1`, for which the IC50 is > 29.9 µM (inactive).

Take `CC(CN1CCC(c2ccccc2)C1)C(=O)c1ccc2c(c1)OCCO2` (stereo unspecified): the IC50 was > 29.9 µM (inactive).

For `O=C(CCN1C[C@@H](C(=O)O)[C@H](c2cccc(F)c2)C1)NC1CC1`, the IC50 was > 29.9 µM (inactive).

On to `Cc1ccc(C(=O)CCN2CCC(c3ccccc3)C2)cc1` (stereo unspecified), for which the IC50 was > 29.9 µM (inactive).

As to `O=C(CCN1CCC(O)(c2ccc(F)cc2)C1)c1ccc2c(c1)OCCO2` (stereo unspecified), the IC50 is > 29.9 µM (inactive).

As for `O=C(CCN1CCC(c2ccccc2)C1)c1ccccc1` (stereo unspecified), the IC50 is > 29.9 µM (inactive).

With `O=C(CCN1CCC(O)(c2ccccc2)C1)c1ccc2c(c1)OCCO2` (stereo unspecified), the IC50 was > 29.9 µM (inactive).

Consider `CC(CN1CCCC1Cc1ccccc1)C(=O)c1ccc2c(c1)OCCO2` (stereo unspecified), for which the IC50 is > 29.9 µM (inactive).

For `O=C(CCN1C[C@@H](C(=O)O)[C@H](c2ccccc2)C1)NC1CCCC1`, the IC50 is > 29.9 µM (inactive).

The IC50 is the concentration that gives 50% inhibition.
